Where two headings read alike, the source gives them in different places. Positions of bridges follow the written chain, without caps; N, C: chain ends. Non-standard residues stand in square brackets, D forms with d. Residues, ends and D or L forms follow the SMILES beside them. Phe(3-CN) = N#Cc1cccc(C[C@H](N)C(=O)O)c1; Hyp = O=C(O)[C@@H]1C[C@@H](O)CN1; NMeL = CN[C@@H](CC(C)C)C(=O)O; NMeNle = CCCC[C@H](NC)C(=O)O; Pip = O=C(O)[C@@H]1CCCCN1; NMeA = CN[C@@H](C)C(=O)O; Orn = NCCC[C@H](N)C(=O)O; Dab = NCC[C@H](N)C(=O)O; Abu = CC[C@H](N)C(=O)O; Dap = NC[C@H](N)C(=O)O
Tests used:
Human PD-L1/PD-1 = biological target: T1, Human PD-L1/PD-1 (Homo sapiens, UniProt Q9NZQ7); test: HTRF PD-1-Ig/PD-L1-His binding assay (human PD-L1); details: cluster symbol; read-out: HTRF IC50 cluster
T1 construct: made in house; host or cells: HEK293T
Procedure, shortened: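 Soluble PD-1-Ig binding to PD-L1-His measured by HTRF in dPBS with 0.1% BSA and 0.05% Tween-20. Detection used europium cryptate anti-Ig antibody (1 nM final) and APC anti-His antibody (20 nM final) added on top of the binding reaction.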

[1] = biological target: T2, LK35.2-hPD-L1 cells / PE-labeled PD-1-Ig (Homo sapiens, UniProt Q9NZQ7); test: LK35.2-hPD-L1 cell binding high-content screening assay; type: cell-based; details: cluster symbol, read-out: CBA IC50 cluster
T2 construct: expressed in transfected cells; host or cells: LK35.2 mouse B cell line
Procedure, shortened: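 Mouse LK35.2 B cells stably overexpressing human PD-L1 were cultured overnight in RPMI with 10% FCS, then given compound and PE-labeled human PD-1-Ig (1 nM final) for 1 h at 37 °C. After three dPBS washes, bound fluorescence was quantified by high-content imaging.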

[2] = cell binding assay, cell line not given
[3] = cell line of CBA not given (LK35.2-hPD-L1 or 293T-hPD-L1)

T2 sequence (Q9NZQ7 19-290): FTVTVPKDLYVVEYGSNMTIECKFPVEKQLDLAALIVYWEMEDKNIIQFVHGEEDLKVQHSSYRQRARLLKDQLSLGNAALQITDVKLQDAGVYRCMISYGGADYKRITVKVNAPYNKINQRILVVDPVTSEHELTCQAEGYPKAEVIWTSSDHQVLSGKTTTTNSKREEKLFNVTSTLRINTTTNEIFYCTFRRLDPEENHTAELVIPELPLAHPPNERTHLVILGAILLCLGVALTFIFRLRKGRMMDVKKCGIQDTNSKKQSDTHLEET
T1 sequence (Q9NZQ7 with tags, fused parts or gaps): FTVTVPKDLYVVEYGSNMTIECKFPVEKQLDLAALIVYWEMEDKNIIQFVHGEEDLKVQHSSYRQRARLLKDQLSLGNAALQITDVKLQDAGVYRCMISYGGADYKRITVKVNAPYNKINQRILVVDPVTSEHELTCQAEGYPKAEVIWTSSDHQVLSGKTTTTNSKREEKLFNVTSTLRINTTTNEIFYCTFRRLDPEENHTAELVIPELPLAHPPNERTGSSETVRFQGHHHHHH

Structure (SMILES) | IC50 (Human PD-L1/PD-1) [nM] | IC50 [1, 2] [nM] | IC50 [1, 3] [nM]
CCCC[C@H]1C(=O)N(C)[C@@H](CCCC)C(=O)N[C@@H](CCN)C(=O)N[C@H](C(=O)NCC(N)=O)CSCC(=O)N[C@@H](Cc2ccc(O)cc2)C(=O)N(C)[C@@H](C)C(=O)N[C@@H](CC(N)=O)C(=O)N2CCC[C@H]2C(=O)N[C@@H](Cc2cnc[nH]2)C(=O)N[C@@H](CC(C)C)C(=O)N2C[C@H](O)C[C@H]2C(=O)N[C@@H](Cc2c[nH]c3ccccc23)C(=O)N[C@@H](CCN)C(=O)N[C@@H](Cc2c[nH]c3ccccc23)C(=O)N1C [Example 5032] ({CH2CO}-Y[NMeA]NPHL[Hyp]W[Dab]W[NMeNle][NMeNle][Dab]CG-NH2; thioether N-14) | 0.385 to 6.74 | 0.158 to 4.71 | 
CCCC[C@H]1C(=O)N(C)CC(=O)N[C@@H](CC(=O)O)C(=O)N[C@@H](C(C)C)C(=O)N(C)[C@@H](Cc2ccccc2)C(=O)N[C@@H](CCCNC(=N)N)C(=O)N(C)CC(=O)N[C@@H](Cc2c[nH]c3ccccc23)C(=O)N[C@@H](Cc2ccc(O)cc2)C(=O)N[C@@H](CC(C)C)C(=O)N[C@H](C(=O)NCC(N)=O)CSCC(=O)N[C@@H](Cc2ccccc2)C(=O)N(C)[C@@H](Cc2ccccc2)C(=O)N1C [Example 3506] (HELM PEPTIDE1{[O=C(C[*:3])[*:2]].F.[meF].[CCCC[C@@H](C(=O)[*:2])N(C)[*:1]].[Sar].D.V.[meF].R.[Sar].W.Y.L.C.G.[am]}$PEPTIDE1,PEPTIDE1,1:R3-14:R3$$$V2.0) | 0.385 to 6.74 | 4.78 to 72.9 | 
CCCC[C@H]1C(=O)N(C)[C@@H](CCCC)C(=O)N[C@@H](C)C(=O)N[C@H](C(=O)NCC(N)=O)CSCC(=O)N[C@@H](Cc2ccc(O)cc2)C(=O)N(C)[C@@H](C)C(=O)N[C@@H](CC(=O)O)C(=O)N2CCC[C@H]2C(=O)N[C@@H](Cc2cnc[nH]2)C(=O)N[C@@H](CCCN)C(=O)N2C[C@H](O)C[C@H]2C(=O)N[C@@H](Cc2c[nH]c3ccccc23)C(=O)N[C@@H](CO)C(=O)N[C@@H](Cc2c[nH]c3ccccc23)C(=O)N1C [Example 1140] ({CH2CO}-Y[NMeA]DPH[Orn][Hyp]WSW[NMeNle][NMeNle]ACG-NH2; thioether N-14) | 0.385 to 6.74 |  | 0.158 to 4.71
CCCC[C@H]1C(=O)N(C)[C@@H](CCCC)C(=O)N[C@@H](CCCN)C(=O)N[C@H](C(=O)NCC(N)=O)CSCC(=O)N[C@@H](Cc2ccc(O)cc2)C(=O)N2CCCC[C@H]2C(=O)N[C@@H](CC(N)=O)C(=O)N2CCC[C@H]2C(=O)N[C@@H](Cc2cnc[nH]2)C(=O)N[C@@H](CCC(=O)O)C(=O)N2C[C@H](O)C[C@H]2C(=O)N[C@@H](Cc2c[nH]c3ccccc23)C(=O)N[C@@H](CO)C(=O)N[C@@H](Cc2c[nH]c3ccccc23)C(=O)N1C [Example 1234] ({CH2CO}-Y[Pip]NPHE[Hyp]WSW[NMeNle][NMeNle][Orn]CG-NH2; thioether N-14) | 6.76 to 30.3 |  | 0.158 to 4.71

Continued, values first:

IC50 (Human PD-L1/PD-1) [nM] | IC50 [1, 2] [nM] | IC50 [1, 3] [nM] | Structure (SMILES)
6.76 to 30.3 | 4.78 to 72.9 |  | CCCC[C@H]1C(=O)N(C)[C@@H](CCCC)C(=O)N[C@@H](CCCNC(=N)N)C(=O)N[C@H](C(=O)NCC(N)=O)CSCC(=O)N[C@@H](Cc2cccc(C#N)c2)C(=O)N(C)[C@@H](C)C(=O)N[C@@H](CC(N)=O)C(=O)N2CCC[C@H]2C(=O)N[C@@H](CN)C(=O)N[C@@H](CC(C)C)C(=O)N2C[C@H](O)C[C@H]2C(=O)N[C@@H](Cc2c[nH]c3ccccc23)C(=O)N[C@@H](CO)C(=O)N[C@@H](Cc2c[nH]c3ccccc23)C(=O)N1C [Example 7037] ({CH2CO}-[Phe(3-CN)][NMeA]NP[Dap]L[Hyp]WSW[NMeNle][NMeNle]RCG-NH2; thioether N-14)
0.385 to 6.74 | 4.78 to 72.9 |  | CCCC[C@H]1C(=O)N[C@@H](CN)C(=O)N[C@H](C(=O)NCC(N)=O)CSCC(=O)N[C@@H](Cc2ccc(O)cc2)C(=O)N(C)[C@@H](C)C(=O)N[C@@H](CC(N)=O)C(=O)N2CCC[C@H]2C(=O)N[C@@H](Cc2c[nH]cn2)C(=O)N[C@@H](CCC(=O)O)C(=O)N2C[C@H](O)C[C@H]2C(=O)N[C@@H](Cc2c[nH]c3ccccc23)C(=O)N[C@@H](CCN)C(=O)N[C@@H](Cc2c[nH]c3ccccc23)C(=O)N(C)[C@@H](CC(C)C)C(=O)N1C [Example 5143] ({CH2CO}-Y[NMeA]NPHE[Hyp]W[Dab]W[NMeL][NMeNle][Dap]CG-NH2; thioether N-14)
0.385 to 6.74 | 0.158 to 4.71 |  | CCCC[C@H]1C(=O)N(C)[C@@H](CCCC)C(=O)N[C@@H](CC)C(=O)N[C@H](C(=O)NCC(N)=O)CSCC(=O)N[C@@H](Cc2ccc(O)cc2)C(=O)N(C)[C@@H](C)C(=O)N[C@@H](CC(N)=O)C(=O)N2CCC[C@H]2C(=O)N[C@@H](Cc2c[nH]cn2)C(=O)N[C@@H](CCC(N)=O)C(=O)N2C[C@H](O)C[C@H]2C(=O)N[C@@H](Cc2c[nH]c3ccccc23)C(=O)N[C@@H](CO)C(=O)N[C@@H](Cc2c[nH]c3ccccc23)C(=O)N1C [Example 5078] ({CH2CO}-Y[NMeA]NPHQ[Hyp]WSW[NMeNle][NMeNle][Abu]CG-NH2; thioether N-14)

Source: patent US9850283B2, “Macrocyclic inhibitors of the PD-1/PD-L1 and CD80(B7-1)/PD-L1 protein/protein interactions” (BRISTOL-MYERS SQUIBB COMPANY, priority 2013, dated 2017)
